Measurements: paper PMC7504092, “Synthesis and Antiplasmodial Evaluation of 4-Carboxamido- and 4-Alkoxy-2-Trichloromethyl Quinazolines” (Molecules, 2020)
pEC50, pIC50: −log10 of the molar value. Read-outs that look alike come from different tables or passages of the source.

What was measured:
K1 P. falciparum strain = assay: In vitro antiplasmodial evaluation (SYBR Green I fluorescence-based method); type: cell-based; settings: for activity against P. falciparum (in words): K1 strain; for pIC50: K1, Figures 2 and 3, read-out: IC50 P. falci. K1; for SI (selectivity index = CC50/EC50): CC50 HepG2 / EC50 PfK1; for pEC50: read-out: PfK1 EC50
Description: It was maintained in continuous culture as described previously by Trager and Jensen. […] Parasitemia was maintained daily at between 1 and 3%. The P. falciparum drug susceptibility test was carried out by comparing quantities of DNA in treated and control cultures of parasite in human erythrocytes according to an SYBR Green I fluorescence-based method using a 96-well fluorescence plate reader. […] Duplicate assays were performed for each sample. After incubation, plates were frozen at -20 °C for 24 h. […] Fifteen μL of each sample were transferred to 96-well flat bottom non-sterile black plates (Greiner Bio-one) already containing 15 μL of the SYBR Green I lysis buffer (2X SYBR Green I, 20 mM Tris base pH 7.5, 20 mM EDTA, 0.008% w/v saponin, 0.08% w/v Triton X-100).

[1] = In vitro cytotoxicity evaluation (MTT); type: cell-based; settings: human
Description: Triplicate assays were performed for each sample. Each plate-well was then microscope-examined for possible precipitate formation before the medium was aspirated from the wells. 100 μL of MTT (3-(4,5-dimethyl-2-thiazolyl)-2,5-diphenyl-2H-tetrazolium bromide) solution (0.5 mg/mL in medium without FBS) were then added to each well. […] After this time, the MTT solution was removed and DMSO (100 μL) was added to dissolve the resulting blue formazan crystals. Plates were shaken vigorously (700 rpm) for 10 min. The absorbance was measured at 570 nm with 630 nm as reference wavelength using a BIO-TEK ELx808 Absorbance Microplate Reader (LabX, Midland, ON, Canada). DMSO was used as blank and doxorubicin (purchased from Sigma Aldrich) as positive control. Cell viability was calculated as percentage of control (cells incubated without compound). […] CC50 values represent the mean value calculated from three independent experiments.

[2] = Plasmodium falciparum, K1, 72 h, multi-resistant K1 P. falciparum strain, 72 h incubation
[3] = multi-resistant K1 P. falciparum strain, 72 h incubation

With CCN(CC)CCOc1ncnc2ccccc12 [Molecule 49, N,N-Diethyl-2-(Quinazolin-4-yloxy)ethanamine] the “activity against P. falciparum (in words)” value (K1 P. falciparum strain) was “inactive” and the pIC50 (K1 P. falciparum strain; Plasmodium falciparum) was < 4.30.

In the case of O=C(Nc1nc(C(Cl)(Cl)Cl)nc2ccccc12)c1ccc([N+](=O)[O-])cc1 [Molecule 6, 4-Nitro-N-(2-Trichloromethylquinazolin-4-yl)benzamide], the “SI (selectivity index = CC50/EC50)” value (K1 P. falciparum strain) was 5.3, the pEC50 (K1 P. falciparum strain; [2]) was 5.38 and the CC50 at 72 h [1] was 22.1 µM. The melting point was 214 °C.

C[C@H]1c2cccc(O)c2C(=O)C2=C(O)[C@]3(O)C(=O)C(C(N)=O)=C(O)[C@@H](N(C)C)[C@@H]3[C@@H](O)[C@@H]21 [Doxycycline, reference compound] showed a pEC50 (K1 P. falciparum strain; [2]) of 5.22 and a CC50 at 72 h [1] of 20 µM.

For ClCCCOc1nc(C(Cl)(Cl)Cl)nc2ccccc12 [Molecule 37, 4-(3-Chloropropoxy)-2-Trichloromethylquinazoline], the “SI (selectivity index = CC50/EC50)” value (K1 P. falciparum strain) was 14.4, the pEC50 (K1 P. falciparum strain; [2]) was 5.38 and the CC50 at 72 h [1] was 60.4 µM. The melting point was 77 °C.

COc1ccc(C(=O)Nc2nc(C(Cl)(Cl)Cl)nc3ccccc23)cc1 [Molecule 16, 4-Methoxy-N-(2-Trichloromethylquinazolin-4-yl)benzamide] showed a pIC50 (K1 P. falciparum strain; Plasmodium falciparum) of 6.03 and a CC50 at 72 h [1] of 27.7 µM.

For COCCOc1nc(C(Cl)(Cl)Cl)nc2ccccc12 [Molecule 35, 4-(2-Methoxyethoxy)-2-Trichloromethylquinazoline], the “SI (selectivity index = CC50/EC50)” value (K1 P. falciparum strain) was 23.1, the pEC50 (K1 P. falciparum strain; [2]) was 5.64 and the CC50 at 72 h [1] was 53.2 µM. For the same compound, the melting point was 63 °C.

In the case of C#CC(C)Oc1nc(C(Cl)(Cl)Cl)nc2ccccc12 (stereo not drawn) [Molecule 32, 4-(But-3-yn-2-yloxy)-2-Trichloromethylquinazoline], the “SI (selectivity index = CC50/EC50)” value (K1 P. falciparum strain) was <4.5, the pEC50 (K1 P. falciparum strain; [2]) was < 5.00 and the CC50 at 72 h [1] was 45 µM. The melting point was 92 °C.

For CCOc1nc(C(Cl)(Cl)Cl)nc2ccccc12 [Molecule 27, 4-Ethoxy-2-Trichloromethylquinazoline], the “SI (selectivity index = CC50/EC50)” value (K1 P. falciparum strain) was 10, the pEC50 (K1 P. falciparum strain; [2]) was 5.33 and the CC50 at 72 h [1] was 47.1 µM. It also gave a melting point of 73 °C.

For ClCCCCOc1nc(C(Cl)(Cl)Cl)nc2ccccc12 [Molecule 38, 4-(4-Chlorobutoxy)-2-Trichloromethylquinazoline], the “SI (selectivity index = CC50/EC50)” value (K1 P. falciparum strain) was 11.7, the pEC50 (K1 P. falciparum strain; [2]) was 5.37 and the CC50 at 72 h [1] was 50.5 µM.

With ClC(Cl)(Cl)c1nc(OCCN2CCCC2)c2ccccc2n1 [Molecule 44, 4-[2-(Pyrrolidin-1-yl)ethoxy]-2-Trichloromethylquinazoline] the pEC50 (K1 P. falciparum strain; [2]) was ≥ 5.70, the pEC50 (K1 P. falciparum strain; [3]) was 5.89 and the CC50 at 72 h [1] was 43.7 µM.

Work on O=C(Nc1nc(C(Cl)(Cl)Cl)nc2ccccc12)c1cccc([N+](=O)[O-])c1 [Molecule 7, 3-Nitro-N-(2-Trichloromethylquinazolin-4-yl)benzamide] yielded a pEC50 (K1 P. falciparum strain; [2]) of 5.47 and a CC50 at 72 h [1] of 24.8 µM.

For CCCOc1nc(C(Cl)(Cl)Cl)nc2ccccc12 [Molecule 28, 4-Propoxy-2-Trichloromethylquinazoline], the “SI (selectivity index = CC50/EC50)” value (K1 P. falciparum strain) was 15, the pEC50 (K1 P. falciparum strain; [2]) was 5.46 and the CC50 at 72 h [1] was 54.8 µM. The melting point was 39 °C.

O=C(Nc1nc(C(Cl)(Cl)Cl)nc2ccccc12)c1ccc(Br)cc1 [Molecule 14, 4-Bromo-N-(2-Trichloromethylquinazolin-4-yl)benzamide] gave a pEC50 (K1 P. falciparum strain; [2]) of 5.89 and a CC50 at 72 h [1] of 19.5 µM.

In the case of COc1cccc2c1C(=O)c1c(O)c3c(c(O)c1C2=O)C[C@@](O)(C(=O)CO)C[C@@H]3O[C@H]1C[C@H](N)[C@H](O)[C@H](C)O1 [Doxorubicin, reference compound], the CC50 at 72 h [1] was 0.2 µM.

For FCCOc1nc(C(Cl)(Cl)Cl)nc2ccccc12 [Molecule 39, 4-(2-Fluoroethoxy)-2-Trichloromethylquinazoline], the “SI (selectivity index = CC50/EC50)” value (K1 P. falciparum strain) was 3.7, the pEC50 (K1 P. falciparum strain; [2]) was 5.10 and the CC50 at 72 h [1] was 29.5 µM. The melting point was 73 °C.

For C#CCOc1nc(C(Cl)(Cl)Cl)nc2ccccc12 [Molecule 31, 4-(Prop-2-ynyloxy)-2-Trichloromethylquinazoline], the “SI (selectivity index = CC50/EC50)” value (K1 P. falciparum strain) was 14.6, the pEC50 (K1 P. falciparum strain; [2]) was 5.47 and the CC50 at 72 h [1] was 49.6 µM. The melting point was 62 °C.

Compound CCN(CC)CCCC(C)Nc1ccnc2cc(Cl)ccc12 (stereo not drawn) [Chloroquine, reference compound] has a pEC50 (K1 P. falciparum strain; Plasmodium falciparum, K1, 72 h) of 6.10.

With CCN(CC)CCOc1nc(C(F)(F)F)nc2ccccc12 [Molecule 48, N,N-Diethyl-2-[(2-Trifluoromethylquinazolin-4-yl)oxy]ethan-1-Amine] the “activity against P. falciparum (in words)” value (K1 P. falciparum strain) was “inactive” and the pIC50 (K1 P. falciparum strain; Plasmodium falciparum) was < 4.30.

In the case of COc1ccc(C(=O)Nc2nc(C(F)(F)F)nc3ccccc23)cc1 [Molecule 46, 4-methoxy-N-(2-Trifluoromethylquinazolin-4-yl)benzamide], the “activity against P. falciparum (in words)” value (K1 P. falciparum strain) was “inactive”, the pIC50 (K1 P. falciparum strain; Plasmodium falciparum) was < 4.30 and the melting point was 190 °C.

In the case of ClCCOc1nc(C(Cl)(Cl)Cl)nc2ccccc12 [Molecule 36, 4-(2-Chloroethoxy)-2-Trichloromethylquinazoline], the “SI (selectivity index = CC50/EC50)” value (K1 P. falciparum strain) was >28, the pEC50 (K1 P. falciparum strain; [2]) was 5.66 and the CC50 at 72 h [1] was > 62.5 µM. For the same compound, the melting point was 54 °C.

In the case of O=C(c1ccc(Cl)cc1)N(C(=O)c1ccc(Cl)cc1)c1nc(C(Cl)(Cl)Cl)nc2ccccc12 [Molecule 3, 4-Chloro-N-(4-Chlorobenzoyl)-N-(2-Trichloromethylquinazolin-4-yl)benzamide], the “SI (selectivity index = CC50/EC50)” value (K1 P. falciparum strain) was 13.7, the pEC50 (K1 P. falciparum strain; [2]) was 5.84 and the CC50 at 72 h [1] was 20 µM. For the same compound, the melting point was 218.2 °C.

In the case of CCCCOc1nc(C(Cl)(Cl)Cl)nc2ccccc12 [Molecule 29, 4-Butoxy-2-Trichloromethylquinazoline], the “SI (selectivity index = CC50/EC50)” value (K1 P. falciparum strain) was 14.2, the pEC50 (K1 P. falciparum strain; [2]) was 5.24 and the CC50 at 72 h [1] was 82.4 µM.

With O=C(Nc1nc(C(Cl)(Cl)Cl)nc2ccccc12)c1ccncc1 [Molecule 19, N-(2-Trichloromethylquinazolin-4-yl)isonicotinamide] the “SI (selectivity index = CC50/EC50)” value (K1 P. falciparum strain) was 12.7, the pEC50 (K1 P. falciparum strain; [2]) was 5.74 and the CC50 at 72 h [1] was 22.8 µM. For the same compound, the melting point was 151 °C.

With O=C(Nc1nc(C(Cl)(Cl)Cl)nc2ccccc12)c1cccc(F)c1 [Molecule 10, 3-Fluoro-N-(2-Trichloromethylquinazolin-4-yl)benzamide] the “SI (selectivity index = CC50/EC50)” value (K1 P. falciparum strain) was 6.9, the pEC50 (K1 P. falciparum strain; [2]) was 5.54 and the CC50 at 72 h [1] was 19.9 µM. For the same compound, the melting point was 152 °C.

In the case of CCN(CC)CCOc1nc(C)nc2ccccc12 [Molecule 47, N,N-Diethyl-2-[(2-Methylquinazolin-4-yl)oxy]ethanamine], the “activity against P. falciparum (in words)” value (K1 P. falciparum strain) was “inactive”, the pIC50 (K1 P. falciparum strain; Plasmodium falciparum) was < 4.30 and the melting point was 230 °C.

O=C(Nc1nc(C(Cl)(Cl)Cl)nc2ccccc12)c1cccc(Cl)c1 [Molecule 12, 3-Chloro-N-(2-Trichloromethylquinazolin-4-yl)benzamide] gave a pEC50 (K1 P. falciparum strain; [2]) of 5.81 and a CC50 at 72 h [1] of 16.4 µM.

Work on CCN(CC)CCOc1nc(C(Cl)(Cl)Cl)nc2ccccc12 [Molecule 41, N,N-Diethyl-2-[(2-Trichloromethylquinazolin-4-yl)oxy]ethanamine] yielded a pIC50 (K1 P. falciparum strain; Plasmodium falciparum) of 6.05, a CC50 at 72 h [1] of 32.3 µM and a melting point of 137 °C.

With C#CC(Oc1nc(C(Cl)(Cl)Cl)nc2ccccc12)C(C)C (stereo not drawn) [Molecule 33, 4-(4-Methylpent-1-yn-3-yloxy)-2-Trichloromethylquinazoline] the “SI (selectivity index = CC50/EC50)” value (K1 P. falciparum strain) was <3, the pEC50 (K1 P. falciparum strain; [2]) was < 5.00 and the CC50 at 72 h [1] was 30.6 µM. The melting point was 96 °C.

With COc1ccc(C(=O)Nc2nc(C)nc3ccccc23)cc1 [Molecule 45, 4-methoxy-N-(2-Methylquinazolin-4-yl)benzamide] the “activity against P. falciparum (in words)” value (K1 P. falciparum strain) was “inactive” and the pIC50 (K1 P. falciparum strain; Plasmodium falciparum) was < 4.30.

With O=C(Nc1nc(C(Cl)(Cl)Cl)nc2ccccc12)c1ccc(F)cc1 [Molecule 9, 4-Fluoro-N-(2-Trichloromethylquinazolin-4-yl)benzamide] the pEC50 (K1 P. falciparum strain; [2]) was ≥ 5.70, the pEC50 (K1 P. falciparum strain; [3]) was 5.87 and the CC50 at 72 h [1] was 29.4 µM. The melting point was 166 °C.

With CC(=O)NCCOc1nc(C(Cl)(Cl)Cl)nc2ccccc12 [Molecule 42, N-{2-[(2-Trichloromethylquinazolin-4-yl)oxy]ethyl}acetamide] the “SI (selectivity index = CC50/EC50)” value (K1 P. falciparum strain) was >30, the pEC50 (K1 P. falciparum strain; [2]) was 5.48 and the CC50 at 72 h [1] was > 99.7 µM. For the same compound, the melting point was 135 °C.

Work on N#Cc1ccc(C(=O)Nc2nc(C(Cl)(Cl)Cl)nc3ccccc23)cc1 [Molecule 15, 4-Cyano-N-(2-Trichloromethylquinazolin-4-yl)benzamide] yielded a pEC50 (K1 P. falciparum strain; [2]) of 5.46 and a CC50 at 72 h [1] of 31.4 µM.

For O=C(Nc1nc(C(Cl)(Cl)Cl)nc2ccccc12)c1ccc(Cl)cc1 [Molecule 2, 4-Chloro-N-(2-Trichloromethylquinazolin-4-yl)benzamide], the CC50 at 72 h [1] was 21 µM and the melting point was 199 °C.

In the case of ClC(Cl)(Cl)c1nc(OCCN2CCCCC2)c2ccccc2n1 [Molecule 43, 4-[2-(Piperidin-1-yl)ethoxy]-2-Trichloromethylquinazoline], the “SI (selectivity index = CC50/EC50)” value (K1 P. falciparum strain) was 16.5, the pEC50 (K1 P. falciparum strain; [2]) was 5.85 and the CC50 at 72 h [1] was 23.4 µM.

Compound O=C(Nc1nc(C(Cl)(Cl)Cl)nc2ccccc12)c1ccccc1Cl [Molecule 13, 2-Chloro-N-(2-Trichloromethylquinazolin-4-yl)benzamide] has a pEC50 (K1 P. falciparum strain; [2]) of 5.04 and a CC50 at 72 h [1] of 27.3 µM.
